The text below walks through data of ChEMBL document CHEMBL3102725, “Trichodermone, a spiro-cytochalasan with a tetracyclic nucleus (7/5/6/5) skeleton from the plant endophytic fungus Trichoderma gamsii” (J Nat Prod, 2014).

The assay relates to HeLa. Description: Cytotoxicity against human HeLa cells by MTT assay. Format: functional, cell-based.

For orientation: IC50 means the point on the concentration scale where inhibition reaches its midpoint. Low readings indicate greater potency in that assay, high ones weaker potency in that assay. `CC(=O)O[C@H]1C(=O)[C@@]2(C)[C@H]([C@H](OC(=O)c3ccccc3)[C@]3(O)C[C@H](OC(=O)[C@H](O)[C@@H](NC(=O)c4ccccc4)c4ccccc4)C(C)=C1C3(C)C)[C@]1(OC(C)=O)CO[C@@H]1C[C@@H]2O` [PACLITAXEL] gave an IC50 of 2.5 nM. On to `CC1=C[C@@H]2/C=C(\C)CC[C@H](O)[C@H](O)/C=C/C(=O)[C@]23C(=O)N[C@@H](CC(C)C)[C@@H]3[C@@H]1C` [ASPOCHALASIN D], for which half-maximal inhibition (IC50) was put at 5720 nM.
